We go through 20 compounds from US9796711B2, “Substituted pyrazolo[3,4-b]pyridin-6-carboxylic acids and method of use” (AbbVie S.àr.l., priority 2015, dated 2017).

A word on the EC50: it is the concentration giving half of the maximal effect.

For assay [1], the target named is T1, ΔF508-CFTR (Homo sapiens, UniProt P13569, DEL508-508).
T1 construct: host or cells: CFBE41o-, doxycycline-inducible
The experiment in a line: CFTR cell surface levels using HRP-tagged ΔF508-CFTR expressing CFBE cells, in the presence of a co-corrector. The conditions noted are these: HRP-tagged ΔF508-CFTR expressing CFBE cells, in the presence of 3 μM co-corrector; for EC50: read-out: EC50. The assay is classed as cell-based. Summed up: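 Cells were seeded with 0.5 μg/mL doxycycline and held 68 h at 37 °C. Test compounds plus 3 μM co-corrector (final 0.1% DMSO) were then added for 20 h at 33 °C. Washed cells received HRP substrate, and luminescence was normalized between DMSO and 3 μM co-corrector controls.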

Assay [2] has as its target T1, ΔF508-CFTR. The experiment in a line: CFTR cell surface levels using HRP-tagged ΔF508-CFTR expressing CFBE cells, intrinsic corrector capacity. The assay is classed as cell-based. The conditions noted are these: for EC50: read-out: EC50. The method, boiled down:
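Here the cells express ΔF508-CFTR with horseradish peroxidase inserted in extracellular loop 4, so only rescued channel at the surface gives luminescent signal. Compounds act on their own, 20 h at the reduced temperature of 33 °C; values are percent activity relative to DMSO and a 3 μM corrector.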

The mark [3] stands for this setting: HRP-tagged ΔF508-CFTR CFBE41o- cells, compounds alone (intrinsic corrector capacity), 20 hours at 33° C., positive control 3 μM corrector.
Setting [4] is: HRP-tagged ΔF508-CFTR CFBE41o- cells, compounds alone (intrinsic corrector capacity), 20 hours at 33° C.
[5] abbreviates: HRP-tagged ΔF508-CFTR expressing CFBE cells, intrinsic corrector capacity (no co-corrector), 33° C., 20 hours.

T1 sequence (P13569 with tags, fused parts or gaps DEL508-508): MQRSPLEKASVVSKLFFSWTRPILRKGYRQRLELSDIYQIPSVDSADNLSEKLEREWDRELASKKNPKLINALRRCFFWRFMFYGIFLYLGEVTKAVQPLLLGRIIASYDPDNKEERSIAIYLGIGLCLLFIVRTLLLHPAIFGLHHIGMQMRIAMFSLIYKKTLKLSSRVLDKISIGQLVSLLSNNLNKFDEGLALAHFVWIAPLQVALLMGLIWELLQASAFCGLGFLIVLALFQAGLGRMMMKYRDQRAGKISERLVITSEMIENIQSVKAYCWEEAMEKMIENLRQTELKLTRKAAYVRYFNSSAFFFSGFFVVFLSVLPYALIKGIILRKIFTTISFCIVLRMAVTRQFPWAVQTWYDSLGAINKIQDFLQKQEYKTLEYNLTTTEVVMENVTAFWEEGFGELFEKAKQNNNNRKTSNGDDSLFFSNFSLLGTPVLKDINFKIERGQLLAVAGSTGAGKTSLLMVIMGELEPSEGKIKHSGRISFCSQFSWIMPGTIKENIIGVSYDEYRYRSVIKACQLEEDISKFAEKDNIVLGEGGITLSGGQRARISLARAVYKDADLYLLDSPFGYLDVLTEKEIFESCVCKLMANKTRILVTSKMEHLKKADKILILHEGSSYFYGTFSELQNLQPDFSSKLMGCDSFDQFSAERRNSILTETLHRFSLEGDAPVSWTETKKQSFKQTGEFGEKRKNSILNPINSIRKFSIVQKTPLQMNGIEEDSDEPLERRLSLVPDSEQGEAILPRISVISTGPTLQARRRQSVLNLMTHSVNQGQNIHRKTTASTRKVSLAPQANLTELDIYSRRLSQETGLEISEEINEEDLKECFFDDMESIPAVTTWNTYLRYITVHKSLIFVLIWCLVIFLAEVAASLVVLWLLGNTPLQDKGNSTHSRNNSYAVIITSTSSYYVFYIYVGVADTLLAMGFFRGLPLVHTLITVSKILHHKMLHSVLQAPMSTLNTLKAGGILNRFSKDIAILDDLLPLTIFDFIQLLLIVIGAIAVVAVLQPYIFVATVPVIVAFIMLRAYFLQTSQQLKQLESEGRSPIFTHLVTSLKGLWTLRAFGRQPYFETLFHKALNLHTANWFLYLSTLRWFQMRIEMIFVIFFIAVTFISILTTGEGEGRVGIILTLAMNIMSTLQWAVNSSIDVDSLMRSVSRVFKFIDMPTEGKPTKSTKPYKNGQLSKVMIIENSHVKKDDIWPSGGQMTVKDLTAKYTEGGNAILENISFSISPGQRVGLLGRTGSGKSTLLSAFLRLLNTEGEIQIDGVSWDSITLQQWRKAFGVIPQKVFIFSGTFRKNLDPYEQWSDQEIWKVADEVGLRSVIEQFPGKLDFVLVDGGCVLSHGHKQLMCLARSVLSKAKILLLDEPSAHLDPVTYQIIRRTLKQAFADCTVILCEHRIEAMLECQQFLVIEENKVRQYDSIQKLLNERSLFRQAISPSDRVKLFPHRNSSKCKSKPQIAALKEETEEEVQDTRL

For `CN(C)Cc1nn(-c2ccccc2)c2nc(C(=O)O)cc(-c3ccc(N4CCOCC4)cc3)c12` [compound 87, 3-[(dimethylamino)methyl]-4-[4-(morpholin-4-yl)phenyl]-1-phenyl-1H-pyrazolo[3,4-b]pyridine-6-carboxylic acid], the “% Activation” value at ΔF508-CFTR [1] was found to be 148.9%; on ΔF508-CFTR [2] (setting [3]), 28.91%. Further, the EC50 was 3.34 µM at ΔF508-CFTR [1] and over 10 µM at ΔF508-CFTR [2] (setting [4]).

For `CC(C)(C)OC(=O)N1CCC(Oc2nn(-c3ccccc3)c3nc(C(=O)O)cc(-c4ccc(N5CCC(C#N)CC5)nc4)c23)C1` (centres unmarked) [compound 552, 3-{[1-(tert-butoxycarbonyl)pyrrolidin-3-yl]oxy}-4-[6-(4-cyanopiperidin-1-yl)pyridin-3-yl]-1-phenyl-1H-pyrazolo[3,4-b]pyridine-6-carboxylic acid], on ΔF508-CFTR [1], the “% Activation” value was determined as 396.65% and the 50% effective concentration (EC50) turned out to be 0.396 µM. Also, at ΔF508-CFTR [2] (setting [5]), the “% Activation” value is recorded as 156.1% and the EC50 is 0.37 µM.

In the case of `COc1cccc(-n2nc(C)c3c(-c4ccc(N5CCN(CC#N)CC5)cc4)cc(C(=O)O)nc32)c1` [compound 232, 4-{4-[4-(cyanomethyl)piperazin-1-yl]phenyl}-1-(3-methoxyphenyl)-3-methyl-1H-pyrazolo[3,4-b]pyridine-6-carboxylic acid], the “% Activation” value on ΔF508-CFTR [1] was determined as 380.95%; on ΔF508-CFTR [2] (setting [3]), 215.6%. In addition, the EC50 on ΔF508-CFTR [1] was 1.28 µM; at ΔF508-CFTR [2] (setting [4]), 1.68 µM.

Take `CS(=O)(=O)N1CCC(F)(COc2cc(C(=O)O)nc3c2c(C2CCC2)nn3-c2ccccc2)CC1` [compound 626, 3-cyclobutyl-4-{[4-fluoro-1-(methanesulfonyl)piperidin-4-yl]methoxy}-1-phenyl-1H-pyrazolo[3,4-b]pyridine-6-carboxylic acid]: on ΔF508-CFTR [1], the “% Activation” value was found to be 398.15% and the EC50 came to 1.01 µM. In addition, at ΔF508-CFTR [2] (setting [5]), the “% Activation” value is 223.1% and the EC50 was 2.71 µM.

With `CCN(CC)CCCOc1cc(C(=O)O)nc2c1c(C1CCC1)nn2-c1ccccc1` [compound 624, 3-cyclobutyl-4-[3-(diethylamino)propoxy]-1-phenyl-1H-pyrazolo[3,4-b]pyridine-6-carboxylic acid], at ΔF508-CFTR [1], the “% Activation” value turned out to be 281.85% and the concentration for a half-maximal effect (EC50) stood at 2.21 µM. Further, at ΔF508-CFTR [2] (setting [5]), the “% Activation” value came out at 98.14% and the EC50 was 3.33 µM.

As to `Cc1nn(-c2ccccc2)c2nc(C(=O)O)cc(-c3ccc(N4CCOCC4)cc3Cl)c12` [compound 26, 4-[2-chloro-4-(morpholin-4-yl)phenyl]-3-methyl-1-phenyl-1H-pyrazolo[3,4-b]pyridine-6-carboxylic acid], the results for the “% Activation” value at ΔF508-CFTR [1] and at ΔF508-CFTR [2] (setting [3]) were 258.4% and 83.24%, respectively. Besides, the EC50 is 1.09 µM on ΔF508-CFTR [1] and 1.27 µM on ΔF508-CFTR [2] (setting [4]).

Take `CC(C)c1nn(-c2cccc(N(C)C)c2)c2nc(C(=O)O)cc(N3CCC(C(F)(F)F)C3)c12` (centres unmarked) [compound 270, 1-[3-(dimethylamino)phenyl]-3-(propan-2-yl)-4-[3-(trifluoromethyl)pyrrolidin-1-yl]-1H-pyrazolo[3,4-b]pyridine-6-carboxylic acid]: the “% Activation” value on ΔF508-CFTR [1] is given as 430.4%; at ΔF508-CFTR [2] (setting [3]), 236.02%. In addition, the EC50 on ΔF508-CFTR [1] came out at 0.529 µM; on ΔF508-CFTR [2] (setting [4]), 0.698 µM.

With `O=C(O)c1cc(N2CC(F)(F)C2)c2c(C3CCC3)nn(-c3ccccc3)c2n1` [compound 528, 3-cyclobutyl-4-(3,3-difluoroazetidin-1-yl)-1-phenyl-1H-pyrazolo[3,4-b]pyridine-6-carboxylic acid], the “% Activation” value stood at 209.2% at ΔF508-CFTR [1] and 80.74% at ΔF508-CFTR [2] (setting [5]). In addition, the concentration for a half-maximal effect (EC50) at ΔF508-CFTR [1] amounted to 1.94 µM; at ΔF508-CFTR [2] (setting [5]), 3.33 µM.

For `CN(C)c1ccc(-c2cc(C(=O)O)nc3c2c(C2CC2)nn3C2CCCCC2)cn1` [compound 193, 1-cyclohexyl-3-cyclopropyl-4-[6-(dimethylamino)pyridin-3-yl]-1H-pyrazolo[3,4-b]pyridine-6-carboxylic acid], the results for the “% Activation” value on ΔF508-CFTR [1] and at ΔF508-CFTR [2] (setting [3]) were 402.32% and 194.98%, respectively. The EC50 at ΔF508-CFTR [1] was determined as 0.425 µM; at ΔF508-CFTR [2] (setting [4]) it was 0.633 µM.

As to `O=C(O)c1cc(N2CCC(F)(F)CC2)c2c(C3CCC3)nn(-c3ccccc3)c2n1` [compound 594, 3-cyclobutyl-4-(4,4-difluoropiperidin-1-yl)-1-phenyl-1H-pyrazolo[3,4-b]pyridine-6-carboxylic acid], at ΔF508-CFTR [1], the “% Activation” value is given as 269.8% and the EC50 turned out to be 0.621 µM. Further, at ΔF508-CFTR [2] (setting [5]), the “% Activation” value came to 75.66% and the EC50 was 0.787 µM.

With `CC(C)c1nn(-c2cccc(N3CCC(F)C3)c2)c2nc(C(=O)O)cc(-c3ccc(N4CCOCC4)cc3)c12` (centres unmarked) [compound 165, 1-[3-(3-fluoropyrrolidin-1-yl)phenyl]-4-[4-(morpholin-4-yl)phenyl]-3-(propan-2-yl)-1H-pyrazolo[3,4-b]pyridine-6-carboxylic acid], the “% Activation” value is recorded as 533.35% at ΔF508-CFTR [1] and 350.4% on ΔF508-CFTR [2] (setting [3]). The EC50 came to 0.515 µM at ΔF508-CFTR [1] and 0.794 µM on ΔF508-CFTR [2] (setting [4]).

As to `CC(C)COC1CCN(c2cc(C(=O)O)nc3c2c(C(C)C)nn3-c2ccc(F)cc2)CC1` [compound 396, 1-(4-fluorophenyl)-4-[4-(2-methylpropoxy)piperidin-1-yl]-3-(propan-2-yl)-1H-pyrazolo[3,4-b]pyridine-6-carboxylic acid], on ΔF508-CFTR [1], the “% Activation” value was determined as 409.8% and the half-maximal effective concentration (EC50) is 0.301 µM. Also, on ΔF508-CFTR [2] (setting [5]), the “% Activation” value worked out at 209.3% and the EC50 was 0.403 µM.

Regarding `CC(C)N1CCN(c2ccc(-c3cc(C(=O)O)nc4c3c(C3CCC3)nn4C3CCCCC3)cc2)CC1` [compound 867, 3-cyclobutyl-1-cyclohexyl-4-{4-[4-(propan-2-yl)piperazin-1-yl]phenyl}-1H-pyrazolo[3,4-b]pyridine-6-carboxylic acid], the “% Activation” value on ΔF508-CFTR [1] was determined as 290.65%; at ΔF508-CFTR [2] (setting [5]) it was 125.2%. Moreover, the concentration giving a half-maximal response (EC50) at ΔF508-CFTR [1] was 0.317 µM; at ΔF508-CFTR [2] (setting [5]), 1.41 µM.

For `O=C(O)c1cc(N2CCC(CN3CCC(F)(F)C3)CC2)c2c(C3CCC3)nn(-c3ccccc3)c2n1` [compound 828, 3-cyclobutyl-4-{4-[(3,3-difluoropyrrolidin-1-yl)methyl]piperidin-1-yl}-1-phenyl-1H-pyrazolo[3,4-b]pyridine-6-carboxylic acid], on ΔF508-CFTR [1], the “% Activation” value is given as 518.35% and the concentration for a half-maximal effect (EC50) turned out to be 0.0479 µM. Further, on ΔF508-CFTR [2] (setting [5]), the “% Activation” value stood at 283.5% and the EC50 stood at 0.0832 µM.

On to `Cc1nn(-c2ccccc2)c2nc(C(=O)O)cc(C3CCN(CC#N)CC3)c12` [compound 139, 4-[1-(cyanomethyl)piperidin-4-yl]-3-methyl-1-phenyl-1H-pyrazolo[3,4-b]pyridine-6-carboxylic acid], for which the “% Activation” value was 104.1% at ΔF508-CFTR [1] and −0.041% at ΔF508-CFTR [2] (setting [3]). Also, the EC50 at ΔF508-CFTR [1] and on ΔF508-CFTR [2] (setting [4]) was over 10 µM each time.

For the compound `CC(C)Oc1nn(C2CCCCC2)c2nc(C(=O)O)cc(-c3ccc(N4CCN(C(C)C)CC4)cc3)c12` [compound 863, 1-cyclohexyl-3-[(propan-2-yl)oxy]-4-{4-[4-(propan-2-yl)piperazin-1-yl]phenyl}-1H-pyrazolo[3,4-b]pyridine-6-carboxylic acid], the “% Activation” value at ΔF508-CFTR [1] was determined as 320.9%; at ΔF508-CFTR [2] (setting [5]), 156.35%. The EC50 on ΔF508-CFTR [1] was found to be 0.37 µM; on ΔF508-CFTR [2] (setting [5]), 0.499 µM.

Take `CC(C)c1nn([C@@H]2CCC[C@@H](O)C2)c2nc(C(=O)O)cc(-c3ccc(N4CCOCC4)cc3)c12` (racemic) [compound 194, rac-1-[(1R,3R)-3-hydroxycyclohexyl]-4-[4-(morpholin-4-yl)phenyl]-3-(propan-2-yl)-1H-pyrazolo[3,4-b]pyridine-6-carboxylic acid]: the “% Activation” value on ΔF508-CFTR [1] was 233.9%; on ΔF508-CFTR [2] (setting [3]), 86.36%. The EC50 on ΔF508-CFTR [1] was 1.25 µM; at ΔF508-CFTR [2] (setting [4]) it was 1.71 µM.

In the case of `CC(C)c1nn(-c2ccnc(N3CCCC3)c2)c2nc(C(=O)O)cc(-c3ccc(N4CCC(C#N)CC4)nc3)c12` [compound 369, 4-[6-(4-cyanopiperidin-1-yl)pyridin-3-yl]-3-(propan-2-yl)-1-[2-(pyrrolidin-1-yl)pyridin-4-yl]-1H-pyrazolo[3,4-b]pyridine-6-carboxylic acid], the “% Activation” value on ΔF508-CFTR [1] worked out at 389.2%; at ΔF508-CFTR [2] (setting [3]) it was 251.6%. Further, the concentration giving a half-maximal response (EC50) on ΔF508-CFTR [1] is 0.471 µM; on ΔF508-CFTR [2] (setting [4]), 0.843 µM.

Consider `COCCCN1CCN(c2cc(C(=O)O)nc3c2c(C)nn3-c2ccccc2)CC1` [compound 321, 4-[4-(3-methoxypropyl)piperazin-1-yl]-3-methyl-1-phenyl-1H-pyrazolo[3,4-b]pyridine-6-carboxylic acid], for which the “% Activation” value at ΔF508-CFTR [1] turned out to be 196.85%; on ΔF508-CFTR [2] (setting [3]), 39.85%. The EC50 on ΔF508-CFTR [1] and on ΔF508-CFTR [2] (setting [4]) was 2.51 µM each time.

Turning to `CN1CCC[C@]12C[C@@H](Oc1cc(C(=O)O)nc3c1c(C1CCC1)nn3-c1ccccc1)C2` [compound 645, 3-cyclobutyl-4-{[(2s,4r)-5-methyl-5-azaspiro[3.4]octan-2-yl]oxy}-1-phenyl-1H-pyrazolo[3,4-b]pyridine-6-carboxylic acid], the “% Activation” value at ΔF508-CFTR [1] was determined as 270.05%; at ΔF508-CFTR [2] (setting [5]), 111.55%. Besides, the EC50 on ΔF508-CFTR [1] came to 0.409 µM; on ΔF508-CFTR [2] (setting [5]), 1.07 µM.
